Measurements published in patent US12558358B2 (UNIVERZITA PALACKEHO V OLOMOUCI, priority 2019, dated 2026).

Key:
Human fibroblasts BJ = assay: Long-term cultivation of BJ fibroblasts, cell count (Example 9); type: cell-based; conditions: 12.5-100 µM, 12th day, FIG. 8
Procedure: Human fibroblasts BJ were maintained in standard cultivation medium DMEM with 10% fetal bovine serum. The experiment was performed in 24-well plates. 10,000 cells in DMEM medium with 10% fetal bovine serum were seeded into the wells. The test compound was added to a final concentration in the range of 12.5-100 µM after 24 hours. DMSO vehicle was used as a negative control. In order to obtained better idea of test variability, 8 control wells were used (columns A and D). The cultivation medium containing either test compound or DMSO was replaced twice a week. The cells were trypsinized on the 12th day and counted on Coulter Z2 apparatus.

[1] = test system: NIH3T3 cells with mPer2-Luc reporter; assay: Circadian rhythm period and amplitude, NIH3T3 cells with Per2-Luc reporter (Example 2); type: cell-based, mouse
Procedure: Mouse embryonic fibroblasts NIH3T3 cells were grown in standard DMEM with 10% fetal calf serum. NIH3T3 cells were transfected with 1 μg of Per2-Luc reporter (Meng, 2009) using GeneJuice (Novagen) and selected under hygromycin. The cell line was clonally expanded and a single monoclonal cell line was used for further experiments. Cells were cultured in a 96-well plate in growth medium to 90+% confluence. Test compound or vehicle (DMSO) was applied to recording medium with 100 U/ml penicillin, 100 μg/ml streptomycin, 1×GlutaMAX (ThermoFisher, Waltham, MA, USA), 10% fetal calf serum (Sigma) and 0.1 mM Luciferin-EF (Promega Madison, WI, USA). Luminescence was recorded every hour for an additional 144 hours in a Luminoskan Ascent (ThermoFisher). Circadian rhythm analysis was performed using cosinor analysis. […] The concentration and level of other proteins, whose rhythmic expression is controlled by an oscillator in the brain and peripheral tissues (so-called clock-controlled genes), is also necessarily affected.

[2] = test system: explanted suprachiasmatic nuclei (SCN) of mPer2Luc mice; assay: PER2::Luc rhythm in organotypic SCN explants (Example 3); type: cell-based, mouse
Procedure: amplitude of circadian expression of the PER2::Luc clock reporter in the explanted suprachiasmatic nuclei (SCN) of the hypothalamus, the central clock of mammals, of the transgenic mouse line Male and female mPer2Luc mice (strain B6.129S6-Per2tm1Jt/J, JAX, USA) (Yoo et al., 2004) were maintained in a light/dark cycle with 12 hours of light and 12 hours of darkness (LD12: 12), killed between 12:00 and 15:00, i.e. 6-9 hours after turning on the lights, by rapid cervical dislocation under isoflurane anesthesia, their brains were removed and 250 μm thick SCN slices in ice-cold HBSS medium were prepared using a vibratome (Leica, Wetzlar, Germany). Two explants containing SCN from each brain were prepared. Individual SCN explants were then placed on Millicell Culture Inserts (Merck, Darmstadt, Germany) inside 35 mm Petri dishes with test compound or DMSO vehicle in 1 ml air-buffered recording medium supplemented with 100 U/ml penicillin, 100 μg/ml streptomycin (Sigma-Aldrich, St. Luis, MO, USA), 1×GlutaMAX (ThermoFisher, Waltham, MA, USA), 5% fetal calf serum (Sigma) and 0.1 mM Luciferin-EF (Promega Madison, WI, USA). The dishes were sealed with vacuum Vaseline and glass coverslips and placed inside a LumiCycle (Actimetrics) for bioluminescence recording. Rhythm analysis was performed in Lumicycle Analysis software (Actimetrics).

in vitro [3] = type: in vitro ADME
Procedure: (§1) This system is further referred to as RF-MS. Preparation of the lyophilized samples for the analysis is described in the sections dedicated to the individual methods. Lyophilized samples were dissolved in the mobile phase (95% water, 5% acetonitrile, 0.1% formic acid) with respective internal standards. The dissolved samples were aspired directly from 96-well plates into a 10 μL sample loop and passed through a C4 cartridge (Agilent Technologies) with solvent A (95% water, 0.01% formic acid, 5% acetonitrile) at a flow rate of 1.5 mL/minute for 3 seconds. After the desalting step, the analyte retained on the cartridge was eluted with solvent B (95% acetonitrile, 5% 0.01% formic acid) to the mass spectrometer at a flow rate of 0.4 mL/minute for 7 seconds. Mass spectrometry was carried out using electrospray ionization in the positive ion mode. Daughter ion peaks were identified using a multiple-reaction monitoring protocol.
Caco-2 (American Tissue Type Collection) a MDR1-MCDK (Netherlands Cancer Institute) were cultured in DMEM medium with 10% fetal bovine serum. […]
Calculations: The apparent permeability coefficient was calculated as Papp=(dQ/dt)/(C0×A), where dQ/dt is the rate of permeation of the drug across the cell monolayer, C0 is the donor compartment concentration at time t=0 and A is the area of the cell monolayer. […]

[4] = test system: U2OS cells with mBmal1-Luc reporter; assay: Combination with other chronotherapeutics, mBmal1-Luc U2OS cells (Example 6); type: cell-based, human
Procedure: (§2) Human osteosarcoma U2OS cells were grown in standard DMEM with 10% fetal calf serum. U2OS cells were transduced with lentiviral particles containing the reporter pLV6-Bmal1-Luc (S. Brown, Addgene plasmid #68833) and selected under Blasticidin. The cell line was clonally expanded and a single monoclonal cell line was used for further experiments. Cells were cultured in a 384-well plate in growth medium to 90+% confluence. Test compounds or vehicle (DMSO) were applied to recording medium with 100 U/ml penicillin, 100 μg/ml streptomycin, 1×GlutaMAX (ThermoFisher, Waltham, MA, USA), 10% fetal calf serum (Sigma) and 0.1 mM Luciferin-EF (Promega Madison, WI, USA). Luminescence was recorded every hour for additional 144 hours in Luminoskan Ascent (ThermoFisher). Circadian rhythm analysis was performed by cosinor analysis.

skin fibroblasts BJ = type: cell-based; conditions: human, 72 h
Procedure: (§3) It is used for viability testing of eukaryotic cells. The effect of the compounds in several concentrations (maximum concentration of 100 microM and 3 three-fold dilutions) on viability of skin fibroblasts BJ and retinal epithelium cells ARPE-19 was evaluated after 72 hour treatment. The cells were maintained in standard cultivation medium DMEM with 10% fetal bovine serum. 5000 cells were seeded into 96-well plates 24 hours prior to the addition of test compound. DMSO vehicle was used as a negative control. After 72 hours, 1000-times concentrated solution of resazurin in DMSO was added to the cells zo the final concentration of 0.0125 mg/ml. Fluorescence (ex=570 nm, em=610 nm) was measured after 1 hour (ARPE-19) or 3 hours (BJ) of incubation. IC50 values were calculated from dose response curves using drc library for R programming environment.

[5] = test system: retinal epithelium cells ARPE-19; type: cell-based; conditions: human, 72 h
Procedure: as §3

[6] = test system: Per2 gene expression (mPer2-Luc reporter); assay: mPer2-Luc reporter expression in NIH3T3 cells (Example 5); type: cell-based, mouse; conditions: NIH3T3, first 1-12 hours after application, FIG. 5
Procedure: Mouse embryonic fibroblasts NIH3T3 cells were grown in standard DMEM with 10% fetal calf serum. NIH3T3 cells were transfected with 1 μg of Per2-Luc reporter (Meng, 2009) using GeneJuice (Novagen) and selected under hygromycin. The cell line was clonally expanded and a single monoclonal cell line was used for further experiments. Cells were cultured in a 96-well plate in growth medium to 90+% confluence. Test compound or vehicle (DMSO) was applied to recording medium with 100 U/ml penicillin, 100 μg/ml streptomycin, 1×GlutaMAX (ThermoFisher, Waltham, MA, USA), 10% fetal calf serum (Sigma) and 0.1 mM Luciferin-EF (Promega Madison, WI, USA). Luminescence was recorded every hour for additional 144 hours in Luminoskan Ascent (ThermoFisher).

[7] = type: in vitro ADME; conditions: human, 2 μM
Procedure: as §1
Test compound (a final concentration of 2 μM) was incubated with human plasma (Transfusion Department, University Hospital Olomouc, Olomouc, Czech Republic) for 0, 15, 30, 60 and 120 min at 37° C. The reactions were stopped by addition of acetonitrile-methanol mixture (2:1). Samples were stored at −80° C. overnight and centrifuged (2811×g, 6 min, 4° C.). Supernatants were lyophilized.

[8] = test system: U2OS cells transduced by transcriptional circadian reporter mBmal1-Luc; assay: Circadian rhythm period, U2OS cells with Bmal1-Luc reporter (Example 1); type: cell-based, human; conditions: luminescence 144 hours, cosinor analysis, FIG. 1
Procedure: Human osteosarcoma U2OS cells were grown in standard DMEM with 10% fetal calf serum. U2OS cells were transduced with lentiviral particles containing the reporter pLV6-Bmal1-Luc (S. Brown, Addgene plasmid #68833) and selected under Blasticidin. The cell line was clonally expanded and a single monoclonal cell line was used for further experiments. Cells were cultured in a 384-well plate in growth medium to 90+% confluence. Test compound or vehicle (DMSO) was applied to recording medium with 100 U/ml penicillin, 100 μg/ml streptomycin, 1× GlutaMAX (ThermoFisher, Waltham, MA, USA), 10% fetal calf serum (Sigma) and 0.1 mM Luciferin-EF (Promega Madison, WI, USA). Luminescence was recorded every hour for an additional 144 hours in Luminoskan Ascent (ThermoFisher). Circadian rhythm analysis was performed using cosinor analysis.

in vitro [9] = type: in vitro ADME; conditions: PAMPA, pH 7.4
Procedure: as §1
The parallel artificial membrane permeability assay (PAMPA) was performed using the Millipore MultiScreen filter MultiScreen-IP Durapore 0.45 μm plates and receiver plates (Merck Millipore) according to the manufacturer's protocol PC040EN00. […]
Calculations: The relative permeability log Pe was calculated as log Pe=log{Cx−ln(1−drugA/drugE)}, where C=(VA×VD)/{(VD+VA)×A×T}. […]

[10] = test system: Bmal1 gene expression (mBmal1-Luc reporter); assay: mBmal1-Luc reporter expression in U2OS cells (Example 4); type: cell-based, human; conditions: first 5-15 hours after application, FIG. 4
Procedure: as §2, with “Test compound” for “Test compounds”, “(DMSO) was” for “(DMSO) were”, “(ThermoFisher).” for “(ThermoFisher). Circadian rhythm analysis was performed by cosinor analysis.”

cancer cell line A549 = assay: Resazurin viability of A549 cells, pretreatment plus antineoplastics (Example 7); type: cell-based, human; conditions: pretreatment 100 μM, antineoplastics 3.3 μM, 72 incubation, FIG. 7
Procedure: Human cancer cell line A549 was maintained in standard cultivation medium DMEM with 10% fetal bovine serum. 1000 cells were seeded into the wells of 384-well plate in 30 microliters of RPMI medium. After 24 hours, dexamethasone (final concentration 100 nM) was added in order to synchronize circadian oscillator together with N-(furan-2-ylmethyl)-7H-purin-6-amin (final concentration 100 μM) or DMSO vehicle. After 12 hours, DMSO vehicle or the evaluated antineoplastics (the final concentration 3.3 μM) were added. The compounds were dosed by ECHO system, the DMSO solutions were 1000-times concentrated. After 72 incubation, 1000-times concentrated solution of resazurin in DMSO to a final concentration of 0.0125 mg/ml was added. Fluorescence was measured after 3-hour incubation. […] An equivalent cytotoxic effect can be therefore achieved by an application of lower dose of antineoplastics.

Papp at 1 h, 10 μM (in vitro [3]; dog, MDCK-MDR1, pH 7.4): 315 ×10⁻⁶ cm/s
Papp at 2 h, 10 μM (in vitro [3]; human, Caco-2, pH 7.4): 76 ×10⁻⁶ cm/s
IC10 (skin fibroblasts BJ): > 100 µM
IC10 [5]: > 100 µM
Plasma stability (120 min) [% intact] [7]: 91 % intact
Papp at 18 h, 20 AM (in vitro [9]): 5.01 ×10⁻⁶ cm/s
SMILES: c1coc(CNc2ncnc3nc[nH]c23)c1 [N-(furan-2-ylmethyl)-7H-purin-6-amine]
cell growth (cell count) (Human fibroblasts BJ): did not have a negative effect on cell growth
amplitude of circadian expression of mPer2-Luc ([1]; NIH3T3, FIG. 2): modulates the amplitude
circadian rhythm period ([1]; NIH3T3 mPer2-Luc, luminescence 144 hours, cosinor analysis, FIG. 2): prolongs the circadian rhythm period
circadian rhythm period ([2]; FIG. 3B): prolongs the circadian rhythm period
amplitude ([2]; FIG. 3C): modulates the amplitude
effect on the length of the circadian period in combination with compounds that extend the circadian period ([4]; 50 μM together with PF670, T0901317, KL001, rosiglitazon, SR9009, FIG. 6A-6E): additive or even synergistic effect
effect on the period when added to harmine ([4]; 50 μM together with harmine, FIG. 6F): caused a decrease of the period
Per2 gene expression [6]: regulates Per2 gene expression
circadian rhythm period [8]: extends the circadian rhythm period
Bmal1 gene expression [10]: affects Bmal1 gene expression
activity of antineoplastics on A549 viability after pretreatment (cancer cell line A549): increases activity of antineoplastics
